Values of other authors, collected in patent US8273371B2, “Crystalline mesoporous oxide based materials useful for the fixation and controlled release of drugs” (priority 2003, dated 2012).
Values joined by “and” are separate entries in the source; they are usually repeats but may differ in a detail not shown here. Identical values can stand only once. Blank lines part the entries; values can stand above or below the compound they belong to.

Columns and labels:
[1] = from 50° C. to 130° C.
[2] = capsules with granulate of drug, surfactants, cyclodextrin, Avicel PH 101 and Primojel
[3] = ibuprofen loaded on mesoporous oxide material
[4] = not given; remark: listed apart in the source

SMILES: CCC(C)n1ncn(-c2ccc(N3CCN(c4ccc(OCC5COC(Cn6cncn6)(c6ccc(Cl)cc6Cl)O5)cc4)CC3)cc2)c1=O (centres unmarked) [itraconazole]
solubility in supercritical carbon dioxide [1]: relatively poor

SMILES: CC(C)Cc1ccc(C(C)C(=O)O)cc1 (centres unmarked) [ibuprofen]
drug release after 20 hours ([3]; after 20 hours): 60%
drug release after 24 hours ([3]; after 24 hours): 55% and 68%
maximum release at the third day ([3]; third day): 80%

SMILES: CS(=O)(=O)c1ccc([C@@H](O)[C@@H](CF)NC(=O)C(Cl)Cl)cc1 [florfenicol, D-(threo)-1-p-methylsulfonyl phenyl-2-dichloroacetamido-3-fluoro-1-propanol]
oral bioavailability [4]: good oral bioavailability

The next lines start with the values.

water-solubility (in water): less than 0.01 mg/ml
drug release within 45 minutes [2]: 90%
SMILES: CC(C)(C)c1ccc(C(O)CCCN2CCC(C(O)(c3ccccc3)c3ccccc3)CC2)cc1 (centres unmarked) [terfenadine]

solubility in water: virtually insoluble in water
SMILES: CC/C(=C(/CC)c1ccc(O)cc1)c1ccc(O)cc1 [diethylstilbestrol]
